Data published in US20220117266A1, “NICKEL CHELATION THERAPY” (priority 2019, published 2022).

Key:
[1] = test system: MDR S. Typhimurium (ATCC 700408); experiment: DMG growth inhibition in liquid culture (CFU/mL); assay type: cell-based, Salmonella enterica serovar Typhimurium
Procedure: (§1) Growth conditions. All strains were routinely grown on LB agar plates or in LB broth. For DMG-growth inhibition study, S. Typhimurium strains ATCC 14028 and ATCC 700408 were grown in M9 minimal medium (M9 minimal salts, 0.4% glucose, 2 mM MgSO4, 0.1 mM CaCl2), and 1 μg/mL thiamine, pH 7.2). K. pneumoniae was grown in “W-U” medium, modified from Bender et al. 1977 129:1001-1009, containing 60 mM K2HPO4, 33 mM KH2PO4, 0.4 mM MgSO4, 0.4% Glucose, and 5 mM urea (instead of KNO3), pH 7.4. Briefly, overnight cultures of S. Typhimurium and K. pneumoniae were harvested, spun at 14,000 rpm for five minutes, washed once with either M9 (S. Typhimurium) or W-U (K. pneumoniae) and resuspended in either M9 (S. Typhimurium) or W-U (K. pneumoniae). […] Cells were incubated for 24 hours at 37° C. with shaking at 250 rpm, then serially diluted in PBS and 5 μL of each dilution was spotted in triplicate on LB plate. Colony forming units (CFU) were counted after 16 hours at 37° C. Each growth experiment was done at least three times.

[2] = test system: S. Typhimurium (ATCC 14028); experiment: DMG growth inhibition in liquid culture (CFU/mL); assay type: cell-based, Salmonella enterica serovar Typhimurium
Procedure: as §1

[3] = test system: urease activity in K. pneumoniae BAA-2472; experiment: Urease assay on cell-free extracts of cells grown with DMG; assay type: biochemical; conditions: overnight
Procedure: Thus, similar to hydrogenase inhibition, it appears DMG-mediated Ni chelation can be used to efficiently block urease activity in Klebsiella.
Urease assays. […] Cells were pelleted at 6,000 rpm for 30 minutes and washed three times with PBS (pH 7.4). Cells were standardized to an optical density (OD600) of 4.5, added to sterile glass beads (0.1 mm diameter, Biospec Products, Bartlesville, Okla.) at a 100% w/v ratio, and frozen at −80° C. The bead and cell mixture was thawed at room temperature and vortexed at 3,200 rpm for six minutes with one minute intervals on ice. The mixture was pelleted at 14,000 rpm for two minutes and the cell-free supernatant was assayed for urease activity using the phenol-hypochlorite method (Weatherburn et al. 1967. Analytical Chemistry 39:971-974). Protein concentration was determined using the BCA protein kit (Thermo Fisher Pierce, Rockford, Ill., USA). Urease activity is expressed as μmoles of NH3 produced per minute per mg of total protein.

[4] = test system: H2-uptake hydrogenase activity in S. Typhimurium 14028; experiment: Amperometric hydrogenase assay on whole cells grown with DMG; assay type: cell-based
Procedure: H2-uptake hydrogenase activity is required for colonization in a murine model.
Amperometric hydrogenase assays. […] Cells were suspended in phosphate-buffered saline (PBS) to a final concentration of 8×10^8, per mL and added to a sealed amperometric dual-electrode chamber, with constant stirring; 100 μL of H2-saturated phosphate-buffered saline was added to the chamber and the disappearance of H2 was recorded over time. Hydrogenase activity is expressed in nmoles of H2 oxidized per minute per 10^8 cells.

[5] = test system: S. Typhimurium strain 14028; experiment: Typhoid fever-mouse model (survival, organ burden); assay type: in vivo, BALB/c mice
Procedure: The bacterial burden in livers and spleens was determined three days after infection (FIG. 5).
Mouse experiments—Infection Experiments. […] Female BALB/c mice (Charles River, Boston, Mass.) were orally inoculated individually with the S. Typhimurium strain ATCC 14028, following previously described methods (Maier et al. 2004 Infect Immun 72:6294-6299; Maier et al. 2014 PLoS One 9:e110187; Lamichhane-Khadka R et al. 2015 Infect Immun 83:311-316). Briefly, S. Typhimurium cells grown overnight in LB were harvested, washed, and suspended in sterile PBS to a final OD of OD600 0.01 (approximately 10^7 CFU/mL) and 0.1-mL volumes (10^6 bacterial cells) were introduced orally into each mouse. […] The mice were observed twice daily, and morbidity was recorded. In addition, a fourth independent experiment was performed to determine organ (liver and spleen) bacterial burdens. In this experiment, two groups of eight mice each were inoculated with S. Typhimurium 14028. […] Infection with S.T. 14028 was done as described above. Mice were euthanized 72 hours after infection. Livers and spleens were removed and homogenized in sterile PBS. Dilutions of the homogenate were plated on bismuth sulfite agar plates (BD DIFCO, Becton Dickinson, Franklin Lakes, N.J.), a selective medium for Salmonella species. Colony forming units (CFU) were counted after overnight incubation of the plates at 37° C.

[6] = test system: Helicobacter pylori 43504; experiment: Biofilm inhibition assay (crystal violet); assay type: cell-based; conditions: 48 hours with DMG
Procedure: (§2) Biofilm inhibition assay. S. Typhimurium and K. pneumoniae cultures were adjusted to an optical density (OD600) of 0.1 in fresh LB broth. H. pylori culture was adjusted to an OD600 of 0.15 in brain heart infusion (BHI) supplemented with 0.4% β-cyclodextran. […] Plates containing S. Typhimurium and K. pneumoniae were incubated at 37° C. aerobically without shaking for 18 hours. Plates containing H. pylori were incubated at 37° C. microaerobically without shaking for 48 hours. After incubation with (Na2DMG) a crystal violet biofilm assay was performed as previously described with modifications (Kwasny et al. 2010. Current Protocols in Pharmacology 50:13A. 8.1-13A. 8.23). Briefly, supernatant was removed from the wells. Next, adherent cells were gently washed with phosphate-buffered saline (PBS) and allowed to air dry for 15 minutes. Cells were then heat fixed for one hour at 60° C. before staining with 0.5% crystal violet for 5 minutes. After the crystal violet was thoroughly washed from the wells with distilled deionized water, cells were air dried for 15 minutes. Acetic acid (33%) was then added to the wells to solubilize the crystal violet. The crystal violet-acetic acid solution was transferred to a clean 96 well plate and the OD600 was measured.

[7] = test system: Klebsiella pneumoniae ATCC BAA2472; experiment: Biofilm inhibition assay (crystal violet); assay type: cell-based; conditions: 18 hours with DMG
Procedure: as §2

[8] = test system: C. concisus (strain 13826, ATCC BAA-1457); experiment: Growth inhibition, solid plates (CFU); assay type: cell-based, Campylobacter concisus; conditions: BA plates, 24 hours
[9] = oral 3 mg DMG daily, three-day treatment
[10] = oral DMG 3 mg at 24 h and 30 min before and 24 h post infection, burden three days after infection, n=8

CC(=NO)C(C)=NO [DMG, dimethylglyoxime]
effect on bacterial growth ([1]; DMG at 2.5 mM, 5 mM, or 7.5 mM): no measurable effect
inhibition at 10000 µM ([1]; Salmonella enterica, 24 h): > 100%
effect on bacterial growth ([2]; DMG at 2.5 mM, 5 mM, or 7.5 mM): no measurable effect
inhibition at 10000 µM ([2]; Salmonella enterica, 24 h): > 100%
Urease activity ([3]; DMG 1 mM in LB broth): 0.05 ± 0.01 μmoles of NH3 produced per minute per mg of total protein
Urease activity ([3]; DMG 2 mM in LB broth): 0.03 ± 0.01 μmoles of NH3 produced per minute per mg of total protein
increase in hydrogenase activity compared to the 1 mM DMG medium ([4]; 1 mM DMG + 50 μM NiCl2): 50%
Hydrogenase activity ([4]; DMG 0.1 mM in blood-based medium, six hours, H2-enriched microaerobic, DMG D1885 (anhydrous)): 14.0 ± 2.7 nmoles H2 oxidized per minute per 10^9 cells
Hydrogenase activity ([4]; DMG 0.5 mM): 4.6 ± 1.2 nmoles H2 oxidized per minute per 10^9 cells
Hydrogenase activity ([4]; DMG 1 mM): 3.9 ± 0.9 nmoles H2 oxidized per minute per 10^9 cells
Hydrogenase activity ([4]; DMG 1 mM + NiCl2 0.05 mM): 6.9 ± 1.7 nmoles H2 oxidized per minute per 10^9 cells
Hydrogenase activity ([4]; DMG 5 mM): 0.8 ± 0.1 nmoles H2 oxidized per minute per 10^9 cells
mortality [5, 9]: 100%
postponement of time of death [5, 9]: two
mouse survival ([5]; oral 3 mg DMG six hours post-infection then daily for nine days, n=4): 50%
mouse survival ([5]; oral 3 mg DMG six hours post-infection then daily for seven days, n=8): 37.5%
bacterial colonization of livers vs non-DMG treated group [5, 10]: Significantly lower
bacterial colonization of spleens vs non-DMG treated group [5, 10]: Significantly lower
biofilm formation [6]: able to inhibit biofilm formation
biofilm formation [7]: able to inhibit biofilm formation
effect on growth (CFUs, colony size) ([8]; DMG 2 mM): bacteriostatic
effect on growth (CFUs) ([8]; DMG 4 mM, no CFU detected (detection limit: 200 CFUs)): bactericidal
